Measured values taken from PubChem BioAssay (NCI).
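Five concentrations, 48 hours, 96-well plates. TGI marks complete inhibition of growth.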

Assays:
Test in all cases: NCI tumour cell line growth inhibition, 48 h
[1] = tested on: SF-295 CNS
[2] = tested on: SF-539 CNS
[3] = tested on: HT29 colon
[4] = tested on: SNB-19 CNS
[5] = tested on: NCI-H522 lung
[6] = tested on: OVCAR-4 ovarian
[7] = tested on: OVCAR-8 ovarian
[8] = tested on: UACC-257 melanoma
[9] = tested on: HS 578T breast
[10] = tested on: 786-0 renal
[11] = tested on: SN12C renal
[12] = tested on: U251 CNS
[13] = tested on: NCI-H460 lung
[14] = tested on: HL-60(TB) leukemia
[15] = tested on: HCC-2998 colon
[16] = tested on: BT-549 breast
[17] = tested on: CAKI-1 renal
[18] = tested on: SW-620 colon
[19] = tested on: UO-31 renal
[20] = tested on: SR leukemia
[21] = tested on: M14 melanoma
[22] = tested on: IGROV1 ovarian
[23] = tested on: NCI/ADR-RES ovarian
[24] = tested on: RXF 393 renal
[25] = tested on: COLO 205 colon
[26] = tested on: SK-OV-3 ovarian
[27] = tested on: MDA-MB-435
[28] = tested on: NCI-H226 lung
[29] = tested on: OVCAR-5 ovarian
[30] = tested on: T-47D breast
[31] = tested on: ACHN renal
[32] = tested on: A498 renal
[33] = tested on: HCT-116 colon
[34] = tested on: K-562 leukemia
[35] = tested on: MDA-N
[36] = tested on: SK-MEL-5 melanoma
[37] = tested on: MDA-MB-231 breast
[38] = tested on: RPMI-8226 leukemia
[39] = tested on: EKVX NSCLC
[40] = tested on: PC-3 prostate
[41] = tested on: LOX IMVI melanoma
[42] = tested on: MOLT-4 leukemia
[43] = tested on: TK-10 renal
[44] = tested on: SK-MEL-2 melanoma
[45] = tested on: CCRF-CEM leukemia
[46] = tested on: A549 NSCLC
[47] = tested on: MCF7 breast
[48] = tested on: DU-145 prostate
[49] = tested on: SK-MEL-28 melanoma
[50] = tested on: MALME-3M melanoma
[51] = tested on: HCT-15 colon
[52] = tested on: NCI-H23 lung
[53] = tested on: SF-268 CNS
[54] = tested on: OVCAR-3 ovarian
[55] = tested on: HOP-62 NSCLC
[56] = tested on: KM12 colon
[57] = tested on: HOP-92 NSCLC
[58] = tested on: SNB-75 CNS
[59] = tested on: UACC-62 melanoma

Cc1ccc2c(ccc3c[n+]4ccccc4c(C)c32)c1
TGI [1]: 27.2 µM
TGI [2]: 9.83 µM
TGI [3]: 25.9 µM
TGI [4]: 12.8 µM
TGI [5]: 10.7 µM
TGI [6]: 10.8 µM
TGI [7]: 16.2 µM
TGI [8]: 5.59 µM
TGI [9]: 15.3 µM
TGI [10]: 19.1 µM
TGI [11]: 3.46 µM
TGI [12]: 12.1 µM
TGI [13]: > 100 µM
TGI [14]: > 100 µM
TGI [15]: 17.9 µM
TGI [16]: 5.74 µM
TGI [17]: 65.5 µM
TGI [18]: 22.8 µM
TGI [19]: > 100 µM
TGI [20]: 46.3 µM
TGI [21]: 20.9 µM
TGI [22]: 34.7 µM
TGI [23]: > 100 µM
TGI [24]: > 100 µM
TGI [25]: 3.84 µM
TGI [26]: 44.8 µM
TGI [27]: 17.1 µM
TGI [28]: 5.71 µM
TGI [29]: 65 µM
TGI [30]: 12.2 µM
TGI [31]: 39 µM
TGI [32]: > 100 µM
TGI [33]: 27.2 µM
TGI [34]: > 100 µM
TGI [35]: > 100 µM
TGI [36]: 2.47 µM
TGI [37]: 23.1 µM
TGI [38]: 67.2 µM
TGI [39]: > 100 µM
TGI [40]: 15.9 µM
TGI [41]: 27.8 µM
TGI [42]: > 100 µM
TGI [43]: 89.9 µM
TGI [44]: 11.6 µM
TGI [45]: > 100 µM
TGI [46]: 40.9 µM
TGI [47]: 15.6 µM
TGI [48]: 26.6 µM
TGI [49]: 11.5 µM
TGI [50]: 2.98 µM
TGI [51]: > 100 µM
TGI [52]: 10.9 µM
TGI [53]: 6.64 µM
TGI [54]: 4.02 µM
TGI [55]: 11.3 µM
TGI [56]: 2.5 µM
TGI [57]: 22.8 µM

Nc1ncc2c(n1)-c1ccccc1OC2NC1CC1 (stereo unspecified)
TGI [1]: > 100 µM
TGI [2]: > 100 µM
TGI [3]: > 100 µM
TGI [4]: > 100 µM
TGI [5]: > 100 µM
TGI [6]: > 100 µM
TGI [7]: > 100 µM
TGI [8]: > 100 µM
TGI [9]: > 100 µM
TGI [10]: > 100 µM
TGI [11]: > 100 µM
TGI [58]: > 100 µM
TGI [12]: > 100 µM
TGI [13]: > 100 µM
TGI [14]: > 100 µM
TGI [16]: > 100 µM
TGI [17]: > 100 µM
TGI [18]: > 100 µM
TGI [19]: > 100 µM
TGI [20]: > 100 µM
TGI [21]: > 100 µM
TGI [22]: > 100 µM
TGI [23]: > 100 µM
TGI [24]: > 100 µM
TGI [25]: > 100 µM
TGI [26]: > 100 µM
TGI [27]: > 100 µM
TGI [28]: > 100 µM
TGI [29]: > 100 µM
TGI [30]: > 100 µM
TGI [31]: > 100 µM
TGI [32]: > 100 µM
TGI [33]: > 100 µM
TGI [35]: > 100 µM
TGI [36]: > 100 µM
TGI [37]: > 100 µM
TGI [38]: > 100 µM
TGI [39]: > 100 µM
TGI [40]: > 100 µM
TGI [41]: > 100 µM
TGI [42]: > 100 µM
TGI [43]: > 100 µM
TGI [44]: > 100 µM
TGI [45]: > 100 µM
TGI [46]: > 100 µM
TGI [47]: > 100 µM
TGI [48]: > 100 µM
TGI [59]: > 100 µM
TGI [51]: > 100 µM
TGI [52]: > 100 µM
TGI [53]: > 100 µM
TGI [54]: > 100 µM
TGI [56]: > 100 µM
TGI [57]: > 100 µM
